From ChEMBL document CHEMBL1140940, “Pyrido[2,3-d]pyrimidin-5-ones: a novel class of antiinflammatory macrophage colony-stimulating factor-1 receptor inhibitors” (J Med Chem, 2009)
Active and inactive are the calls of the source. The rule behind the calls is not given here.

What was measured:
[1] = test system: Rattus norvegicus; test: Toxicity in rat assessed as tolerability at 40 mg/kg; format: organism-based; design: dose 40 mg/kg; conditions: in vivo
[2] = target: Platelet-derived growth factor receptor beta (Homo sapiens, UniProt P09619); test: Inhibition of PDGFRbeta by fluorescence polarization competition immunoassay
Chain of Platelet-derived growth factor receptor beta (P09619 whole entry): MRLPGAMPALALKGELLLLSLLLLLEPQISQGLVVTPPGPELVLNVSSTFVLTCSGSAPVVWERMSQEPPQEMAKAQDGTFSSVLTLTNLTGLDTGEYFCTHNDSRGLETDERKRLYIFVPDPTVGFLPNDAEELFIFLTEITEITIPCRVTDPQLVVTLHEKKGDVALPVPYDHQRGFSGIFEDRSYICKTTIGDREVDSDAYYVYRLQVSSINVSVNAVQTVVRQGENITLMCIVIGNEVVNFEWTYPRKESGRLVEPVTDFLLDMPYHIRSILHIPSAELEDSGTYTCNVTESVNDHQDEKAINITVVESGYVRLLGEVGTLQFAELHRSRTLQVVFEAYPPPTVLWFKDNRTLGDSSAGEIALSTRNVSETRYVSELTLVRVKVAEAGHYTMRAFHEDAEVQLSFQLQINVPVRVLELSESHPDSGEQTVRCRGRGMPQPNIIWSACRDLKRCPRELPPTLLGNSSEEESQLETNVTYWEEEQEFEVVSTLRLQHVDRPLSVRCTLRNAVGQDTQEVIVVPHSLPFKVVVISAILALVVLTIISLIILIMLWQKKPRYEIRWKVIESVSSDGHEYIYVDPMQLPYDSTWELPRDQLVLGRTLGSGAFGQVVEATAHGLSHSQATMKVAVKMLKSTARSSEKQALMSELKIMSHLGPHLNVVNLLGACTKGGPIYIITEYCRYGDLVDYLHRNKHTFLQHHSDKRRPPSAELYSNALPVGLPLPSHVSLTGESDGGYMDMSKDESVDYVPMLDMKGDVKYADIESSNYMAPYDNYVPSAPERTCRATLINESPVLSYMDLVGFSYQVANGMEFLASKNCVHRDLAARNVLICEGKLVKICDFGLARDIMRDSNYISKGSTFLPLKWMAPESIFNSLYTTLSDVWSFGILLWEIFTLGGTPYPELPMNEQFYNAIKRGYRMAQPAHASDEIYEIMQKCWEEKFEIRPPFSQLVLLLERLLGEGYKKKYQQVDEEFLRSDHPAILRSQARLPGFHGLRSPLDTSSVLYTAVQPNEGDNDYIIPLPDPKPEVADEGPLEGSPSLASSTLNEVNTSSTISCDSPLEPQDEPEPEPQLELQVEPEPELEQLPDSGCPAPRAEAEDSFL

[3] = Half life in monkey at 2 mg/kg, iv; format: ADME, organism-based, Macaca mulatta; design: dose 2 mg/kg, route intravenous; conditions: rhesus monkey, in vivo
[4] = test system: Rattus norvegicus; test: Inhibition of ankle swelling in Freund's complete adjuvant-induced Lewis rat arthritis model at 1 mg/kg, po twice daily administered on day 8 post adjuvant challenge measured on day 21 post adjuvant challenge relative to control; format: functional
[5] = test system: Rattus norvegicus; test: Toxicity in rat assessed as tolerability at 10 mg/kg; format: organism-based; design: dose 10 mg/kg; conditions: in vivo
[6] = Plasma concentration in Freund's complete adjuvant-induced Lewis rat arthritis model at […], po twice daily administered on day 8 post adjuvant challenge measured 7 days after last dose; format: ADME, organism-based; design: dose 0.33 mg/kg, route oral
[7] = Clearance in Sprague-Dawley rat at 2 mg/kg, iv; format: ADME, organism-based; design: dose 2 mg/kg, route intravenous; conditions: in vivo
[8] = Metabolic stability in human liver microsomes after 10 mins; format: ADME, Microsome; conditions: read-out: Stability
[9] = test system: Rattus norvegicus; test: Inhibition of ankle swelling in Freund's complete adjuvant-induced Lewis rat arthritis model at […], po twice daily administered on day 8 post adjuvant challenge measured on day 21 post adjuvant challenge relative to control; format: functional; conditions: dose 0.33 mg/kg
[10] = Clearance in mouse at 2 mg/kg, iv; format: ADME, organism-based; design: dose 2 mg/kg, route intravenous; conditions: in vivo
[11] = target: Mast/stem cell growth factor receptor Kit (Homo sapiens, UniProt P10721); test: Inhibition of KIT by fluorescence polarization competition immunoassay
Chain of Mast/stem cell growth factor receptor Kit (P10721 whole entry): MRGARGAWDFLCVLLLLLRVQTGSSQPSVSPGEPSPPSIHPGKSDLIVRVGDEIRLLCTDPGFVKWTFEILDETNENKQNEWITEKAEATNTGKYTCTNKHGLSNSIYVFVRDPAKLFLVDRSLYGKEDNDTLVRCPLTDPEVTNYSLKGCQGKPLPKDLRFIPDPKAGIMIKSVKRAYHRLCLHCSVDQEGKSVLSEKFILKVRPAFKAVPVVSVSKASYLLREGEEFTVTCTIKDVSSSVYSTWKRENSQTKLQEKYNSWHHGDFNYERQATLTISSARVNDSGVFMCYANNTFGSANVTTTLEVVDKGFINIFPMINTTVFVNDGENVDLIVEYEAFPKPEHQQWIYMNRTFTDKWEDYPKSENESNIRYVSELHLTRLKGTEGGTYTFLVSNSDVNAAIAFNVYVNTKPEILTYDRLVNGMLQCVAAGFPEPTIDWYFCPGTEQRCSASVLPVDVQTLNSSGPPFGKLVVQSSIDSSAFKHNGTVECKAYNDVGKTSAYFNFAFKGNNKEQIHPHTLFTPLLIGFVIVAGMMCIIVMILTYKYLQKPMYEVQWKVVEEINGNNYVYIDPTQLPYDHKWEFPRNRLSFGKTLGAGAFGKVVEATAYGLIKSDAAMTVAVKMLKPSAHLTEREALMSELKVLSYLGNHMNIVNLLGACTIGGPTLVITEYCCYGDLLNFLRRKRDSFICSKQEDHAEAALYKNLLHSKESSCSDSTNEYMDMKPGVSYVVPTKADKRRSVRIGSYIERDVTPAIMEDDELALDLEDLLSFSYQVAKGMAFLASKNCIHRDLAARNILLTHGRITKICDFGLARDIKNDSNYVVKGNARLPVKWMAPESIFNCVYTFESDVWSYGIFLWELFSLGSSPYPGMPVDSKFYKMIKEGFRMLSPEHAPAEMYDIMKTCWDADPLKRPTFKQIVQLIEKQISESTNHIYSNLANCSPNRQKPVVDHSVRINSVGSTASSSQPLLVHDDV

[12] = Oral bioavailability in Sprague-Dawley rat at 10 mg/kg; format: ADME, organism-based; conditions: in vivo
[13] = Half life in Sprague-Dawley rat at 10 mg/kg, po; format: ADME, organism-based; design: dose 10 mg/kg, route oral; conditions: in vivo
[14] = Half life in mouse at 10 mg/kg, po; format: ADME, organism-based; design: dose 10 mg/kg, route oral; conditions: in vivo
[15] = test system: Rattus norvegicus; test: Reversal of ankle swelling in streptococcal cell wall-induced Lewis rat chronic arthritis model at 10 mg/kg, po twice daily administered on day 19 post streptococcal cell wall challenge; format: functional, organism-based; design: dose 10 mg/kg
[16] = target: T1, Tyrosine-protein kinase receptor UFO (Homo sapiens, UniProt P30530); test: Inhibition of Axl by fluorescence polarization competition immunoassay
T1 sequence (P30530 whole entry): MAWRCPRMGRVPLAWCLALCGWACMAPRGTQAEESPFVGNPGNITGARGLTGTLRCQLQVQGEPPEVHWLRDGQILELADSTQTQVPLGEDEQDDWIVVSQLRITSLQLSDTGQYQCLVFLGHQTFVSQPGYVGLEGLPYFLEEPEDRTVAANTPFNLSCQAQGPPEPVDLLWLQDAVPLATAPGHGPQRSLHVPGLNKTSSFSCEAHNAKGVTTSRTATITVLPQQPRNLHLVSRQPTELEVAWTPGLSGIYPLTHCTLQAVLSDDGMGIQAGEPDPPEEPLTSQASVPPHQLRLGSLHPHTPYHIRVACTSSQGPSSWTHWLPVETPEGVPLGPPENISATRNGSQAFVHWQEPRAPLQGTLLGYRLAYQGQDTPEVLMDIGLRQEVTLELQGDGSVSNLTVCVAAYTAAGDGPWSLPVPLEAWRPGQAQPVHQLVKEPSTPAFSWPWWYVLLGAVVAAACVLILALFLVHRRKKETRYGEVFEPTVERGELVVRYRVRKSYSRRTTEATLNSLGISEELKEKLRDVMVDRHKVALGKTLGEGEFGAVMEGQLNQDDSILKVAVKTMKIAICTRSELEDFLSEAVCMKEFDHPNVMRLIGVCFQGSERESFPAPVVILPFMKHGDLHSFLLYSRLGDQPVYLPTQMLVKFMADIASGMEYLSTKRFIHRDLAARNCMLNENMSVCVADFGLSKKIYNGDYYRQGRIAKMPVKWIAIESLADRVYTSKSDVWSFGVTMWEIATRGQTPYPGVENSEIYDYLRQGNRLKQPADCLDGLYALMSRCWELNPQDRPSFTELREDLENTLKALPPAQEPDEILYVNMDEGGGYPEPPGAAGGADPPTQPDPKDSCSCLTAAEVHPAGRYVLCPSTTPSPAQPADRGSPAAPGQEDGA

[17] = Volume of distribution at steady state in mouse at 2 mg/kg, iv; format: ADME, organism-based; design: dose 2 mg/kg, route intravenous; conditions: in vivo, read-out: Vdss
[18] = test system: Rattus norvegicus; test: Inhibition of ankle swelling in Freund's complete adjuvant-induced Lewis rat arthritis model at 3 mg/kg, po twice daily administered on day 8 post adjuvant challenge measured on day 21 post adjuvant challenge relative to control; format: functional

IC50 [2]: 150 nM
half-life [3]: 6.6 h
concentration at 168 h [6]: 14 nM
clearance [7]: 11 mL/min/kg
remaining at 10 min [8]: 87%
clearance [10]: 34 mL/min/kg
IC50 [11]: 6 nM
bioavailability [12]: 100%
half-life [13]: 6.9 h
half-life [14]: 4 h
IC50 [16]: > 1000 nM
Vd [17]: 3.6 L/kg
SMILES: CONC(=O)c1cn(-c2ccc3c(c2)CCC3)c2nc(Nc3ccc(C4CCN(C)CC4)cc3)ncc2c1=O
Activity [1]: Non-toxic
inhibition in vivo at 1 mg/kg [4]: 2%
Activity [5]: Non-toxic
inhibition in vivo at […] [9]: 7%
Activity [15]: Active
inhibition in vivo at 3 mg/kg [18]: 8%
